Data set [1] is described as follows: MTT cytotoxicity assay, cell line expressing CYP1B1. To be noted: Chinese hamster, V79mzhu1B1 cells (V79 cells that express CYP1B1). A general note: Tetrazolium assays rely on reduction of a dye to a coloured formazan, in cell work by metabolically active cells.
Procedure: (§1) The cytotoxicity assay method used was a modification of the MTT cytotoxicity assay (Carmichael et al., 1987, Cancer Research, 47: 936). […] Compound stocks were made up as 100 mM in DMSO and stored for no more than one month at 4° C. The plates were then incubated at 37° C., 5% CO2, 100% humidity for a further 48 hours followed by washing by immersion 3 times in Dulbecco's PBS (phosphate buffered saline) A. 50 μl of RPMI 1640 w/o phenol red (Roswell Park Memorial Institute Medium 1640, Life Science International) with 2 mg/ml MTT was then added for four hours as above, excess MTT removed by aspiration and 125 μl of DMSO added on a vortex for 30 minutes to solubilize the product. The absorbance at A450 was recorded and the results expressed as a % survival of carrier only treated controls.
Data set [2] can be described thus: MTT cytotoxicity assay, parental cell line not expressing CYP1B1. The following applies: Chinese hamster, V79mz cells (parental line that does not express CYP1B1).
Procedure: as §1
Data set [3] addresses T1, CYP1B1 (microsomal preparation of human tumour tissue expressing the CYP1B1 enzyme) (Homo sapiens, UniProt Q16678).
T1 sequence (Q16678 1-543): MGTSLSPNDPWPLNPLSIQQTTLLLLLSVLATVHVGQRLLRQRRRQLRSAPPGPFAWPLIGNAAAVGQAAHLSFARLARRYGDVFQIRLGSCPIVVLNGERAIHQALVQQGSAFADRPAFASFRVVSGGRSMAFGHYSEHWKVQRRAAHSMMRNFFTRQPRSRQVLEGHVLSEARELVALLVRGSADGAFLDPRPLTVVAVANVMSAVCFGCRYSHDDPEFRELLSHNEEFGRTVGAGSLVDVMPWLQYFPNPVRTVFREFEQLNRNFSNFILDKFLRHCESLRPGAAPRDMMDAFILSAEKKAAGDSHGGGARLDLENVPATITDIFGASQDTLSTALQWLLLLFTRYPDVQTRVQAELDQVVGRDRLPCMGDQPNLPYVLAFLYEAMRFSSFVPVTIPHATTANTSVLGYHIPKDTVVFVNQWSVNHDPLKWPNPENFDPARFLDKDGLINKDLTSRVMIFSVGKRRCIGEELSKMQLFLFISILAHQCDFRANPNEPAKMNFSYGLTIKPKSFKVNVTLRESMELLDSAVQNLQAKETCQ
The following applies: pH 7.6.
Procedure: (§2) A microsomal preparation of human tumour tissue expressing the CYP1B1 enzyme was prepared essentially as described by the method of Barrie et al. (1989. J. Steroid Biochem., 6: 1191-1195)
(§3) Experiment were carried out at 37° C., under yellow light.
(§4) An array of 1.5 ml centrifuge tubes were set up in a water bath shaker under aerobic conditions. To each tube was then added 500 μl of pH 7.6 buffer (0.1 M NaK2PO4), followed by NADPH (5 μl of a 25 mM stock solution). The microsomal preparation (80 μl) was then added and the tubes preincubated for 5 minutes at 37° C. The prodrug substrate was then added (10 μl of a 5 mM stock solution) and incubated for 1 hour at 37° C. After 1 hour the tubes were transferred to an ice/water cooling bath (0° C.). The tubes were then centrifuged at 1 5,000 rpm for 30 minutes. A sample of the supernatant (100 μl) was then taken and analysed by HPLC.
(§5) HPLC conditions: Spherisorb C18 (25 cm×4.6 mm id), used without guard column. Flow rate 1 ml/min. Eluent 75% 0.1 M KH2PO4 and 25% acetonitrile.

For data set [4], the system named is V79mz cells (parental cell line which does not express CYP1B1).
Procedure: as §1
In data set [5] the test system is V79mzhu1B1 cells (express the enzyme CYP1B1).
Procedure: as §1
In data set [6] the target is T1, CYP1B1 (microsomal preparation of human tumour tissue expressing the CYP1B1 enzyme). In words: Metabolism studies with microsomal preparation of human tumour tissue, HPLC detection of the hydroxylated metabolite. To be noted: tumour microsomes, NADPH, pH 7.6, 1 hour at 37° C., confirmed by synthesis of authentic metabolite.
Procedure: as §2, §3, §4, §5
The test system of data set [7] is V79mzhu1B1 cells (express the enzyme CYP1B1). In words: MTT cytotoxicity assay, cell line expressing CYP1B1. The following applies: V79 IC50 versus V791B1 IC50.
Procedure: as §1

Where two headings read alike, the source gives them in different places.

Take `COc1cc(C(=O)/C=C/c2ccc(O)cc2)cc(OC)c1OC` [Compound VIII, (E)-1-(4-Hydroxyphenyl)-3-(3,4,5-trimethoxyphenyl)prop-1-en-3-one]: the IC50 at 48 h in data set [1] was determined as 1710 nM; in data set [2], 1810 nM.

Turning to `Oc1ccc(/C=C/c2cc(O)cc(O)c2)cc1` [Compound IIIc, (E)-(3,4′,5)-trihydroxystilbene], the “aromatic hydroxylation to hydroxylated metabolite” value (“aromatic hydroxylation” for short) in data set [3] is given as “converted to the hydroxylated metabolite (E)-(3,3′,4,5′)-tetrahydroxystilbene”.

Turning to `COc1ccc(/C=C/c2ccc(OC)cc2)cc1` [Compound IIIb, (E)-(4,4′)-Dimethoxystilbene], the 50% inhibitory concentration (IC50) stood at 58200 nM in data set [4] and 8300 nM in data set [5].

Take `COc1ccc(/C=C(\C#N)c2cccnc2)cc1` [Compound IIa, (Z)-1-Cyano-1-(3-pyridyl)-2-(4-methoxyphenyl)ethene]: the IC50 at 48 h is 1630 nM in data set [1] and 1810 nM in data set [2]. Besides, the “aromatic hydroxylation” value in data set [6] is “converted to the hydroxylated metabolite (Z)-1-Cyano-1-(3-pyridyl)-2-(3-hydroxy-4-methoxyphenyl)ethene”.

As to `COc1ccc(/C=C/C(=O)c2cc(OC)c(OC)c(OC)c2)cc1` [Compound VII, (E)-1-(4-Methoxyphenyl)-3-(3,4,5-trimethoxyphenyl)prop-1-en-3-one], the IC50 at 48 h in data set [1] turned out to be 5 nM; in data set [2] it was 1000 nM. Also, in data set [7], the “fold more cytotoxic to the cell line expressing CYP1B1 than to the parental cell line not expressing this enzyme” value is on record as “around 200 fold”. Besides, the “aromatic hydroxylation” value in data set [6] is “converted to the hydroxylated metabolite (E)-1-(3-Hydroxy4-methoxyphenyl)-3-(3,4,5-trimethoxyphenyl)prop-1-en-3-one”.

As a reminder, the IC50 is the concentration at which inhibition is half-maximal.

(Values after patent publication US6677383B1, “Hydroxylation activated prodrugs” (De Montfort University, priority 1998, dated 2004).)
